Measured values as given in patent EP0495091B1 (Metabasis Therapeutics Inc., priority 1990, dated 1992).
Each block holds one molecule with its values, some of them ahead of it.

Key:
[1] = biological target: T1, NBTI-specific adenosine transport site (Homo sapiens, UniProt Q99808); experiment: [3H]-NBTI binding assay; settings: 50% displacement of bound [3H]-NBTI (0.5 nM); neuronal membrane protein, 30 minutes, pH 7.4, room temperature; read-out: ED50 (the source's name)
T1 construct: incubated for 30 minutes with 0.5 mg neuronal membrane protein together with 0.5 nM [^3H]-NBTI; from tissue
T1 sequence (Q99808 1-456): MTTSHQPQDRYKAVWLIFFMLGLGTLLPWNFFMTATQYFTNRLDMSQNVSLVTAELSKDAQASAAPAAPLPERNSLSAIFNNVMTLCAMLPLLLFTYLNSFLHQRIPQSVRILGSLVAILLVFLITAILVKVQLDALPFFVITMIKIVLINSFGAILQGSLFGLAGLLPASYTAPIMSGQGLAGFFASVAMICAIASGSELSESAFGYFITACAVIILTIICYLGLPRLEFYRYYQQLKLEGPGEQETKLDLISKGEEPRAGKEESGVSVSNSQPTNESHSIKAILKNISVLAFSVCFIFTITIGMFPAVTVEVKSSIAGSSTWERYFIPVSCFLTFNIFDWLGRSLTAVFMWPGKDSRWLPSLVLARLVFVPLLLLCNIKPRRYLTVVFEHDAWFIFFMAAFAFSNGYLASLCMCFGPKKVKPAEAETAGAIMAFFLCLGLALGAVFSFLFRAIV
Protocol: Increasing concentrations of the test compounds were incubated for 30 minutes with 0.5 mg neuronal membrane protein together with 0.5 nM [^3H]-NBTI in a Tris buffer (pH 7.4) at room temperature. The assays were quenched and membranes collected by rapid filtration. Filters were then solubilized and radioactivity determined by scintillation counting.

[2] = test system: coronary endothelial cells; experiment: Inhibition of adenosine utilization in cell culture; format: cell-based; settings: for inhibition at 5 µM / inhibition at 50 µM: Endothelial cell, read-out: Inhibition of Adenosine Utilization (%); for Inhibition of Adenosine Utilization (%): 1 µM [3H] adenosine, 15 minutes
Protocol: Inhibition of adenosine utilization was determined by measuring the concentration of extracellular adenosine by scintillation counting following separation by thin layer chromatography (TLC).

[3] = test system: Isolated rat hearts; experiment: Improved functional recovery in isolated hearts (Langendorff, post-ischemic LVDP); settings: 5 µM in perfusion buffer; 30 min ischemia, 30 min reperfusion; number in brackets = hearts
Protocol: Isolated rat hearts were cannulated via the ascending aorta and attached to a perfusion apparatus according to the method of Langendorff. The hearts were perfused at a constant pressure of 100 cm of H2O with a modified Krebs-Henseleit buffer (pH 7.4) at 37°C. As a measure of heart function, left ventricular developed pressure (LVDP) was continuously monitored. Following equilibration of the hearts for a period of 30 min., the hearts were subjected to reduced flow i.e. ischemia, by reducing the pressure to 10 cm of H2O for 30 min. Flow was then restored by returning the pressure to its original level (100 cm of H2O) for a further 30 min.

EC50 [1]: 48 µM
SMILES: Nc1c(C(=O)Nc2ccccc2Cl)ncn1[C@@H]1O[C@H](CO)[C@@H](O)[C@H]1O [Compound No. 64, 5-Amino-1-β-D-ribofuranosylimidazole-4-N-(2-chlorophenyl)carboxamide]

SMILES: Nc1c(C(=O)N2CCc3ccccc32)ncn1[C@@H]1O[C@H](CO)[C@@H](O)[C@H]1O [Compound No. 48, 5-Amino-1-β-D-ribofuranosyl-imidazole-4-N-indolinylcarboxamide]
EC50 [1]: 22 µM
inhibition at 5 µM [2]: 23 ± 3%
inhibition at 50 µM [2]: 25 ± 2%

SMILES: Nc1c(C(=O)NCc2ccc([N+](=O)[O-])cc2)ncn1[C@@H]1O[C@H](CI)[C@@H](O)[C@H]1O [Compound No. 46, 5-Amino-1-(5-iodo-5-deoxy-β-D-ribofuranosyl)imidazole-4-N-[(4-nitrophenyl)methyl]carboxamide]
EC50 [1]: 8 µM
inhibition at 5 µM [2]: 19 ± 4%
inhibition at 50 µM [2]: 30 ± 9%

SMILES: C[C@H]1O[C@@H](n2c(S)nc(C(N)=O)c2N)[C@H](O)[C@@H]1O [Compound No. 67, 5-Amino-2-thio-1-β-D-(5-deoxyribofuranosyl)imidazole-4-carboxamide]
Function Recovery % Baseline LVDP (% of hearts) [3]: 77.4±5.7 (3) %

SMILES: CCN(CC)C[C@H]1O[C@@H](n2cnc(C(N)=O)c2N)[C@H](O)[C@@H]1O [compound 65, 5-Amino-1-(5-deoxy-5-diethylaminoribo-β,D-furanosyl)imidazole-4-carboxamide]
Function Recovery % Baseline LVDP (% of hearts) [3]: 72.3±5.6 (4) %

EC50 [1]: 80 µM
SMILES: Nc1c(C(=O)Nc2ccc([N+](=O)[O-])cc2)ncn1[C@@H]1O[C@H](CO)[C@@H](O)[C@H]1O [Compound No. 58, 5-Amino-1-β-D-ribofuranosylimidazole-4-N-(4-nitrophenyl)carboxamide]

EC50 [1]: 17 µM
SMILES: Nc1c(C(=O)N2CCN(c3ccc([N+](=O)[O-])cc3)CC2)ncn1[C@@H]1O[C@H](CO)[C@@H](O)[C@H]1O [Compound No. 60, 5-Amino-4-[1-[4-(4-nitrophenyl)]piperazinocarbamoyl]-1-β-D-ribofuranosylimidazole]

SMILES: NC(=O)c1ncn([C@@H]2O[C@H](CNCc3ccc(Cl)cc3)[C@@H](O)[C@H]2O)c1N [Compound No. 76, 5-Amino-1-(5-(4-chlorobenzyl-amino)-5-deoxyβ-D-ribofuranosyl)imidazole-4-carboxamide]
Function Recovery % Baseline LVDP (% of hearts) [3]: 74.0±2.5 (6) %

SMILES: C[C@@H](NC(=O)c1ncn([C@@H]2O[C@H](CO)[C@@H](O)[C@H]2O)c1N)c1ccc([N+](=O)[O-])cc1 [Compound No. 49]
EC50 [1]: 7 µM
inhibition at 5 µM [2]: 30 ± 4%
inhibition at 50 µM [2]: 33 ± 8%

EC50 [1]: 60 µM
SMILES: Nc1c(C(=O)Nc2ccc(Br)cc2)ncn1[C@@H]1O[C@H](CO)[C@@H](O)[C@H]1O [Compound No. 55, 5-Amino-1-β-D-ribofuranosylimidazole-4-N-(4-bromophenyl)carboxamide]

EC50 [1]: 28 µM
SMILES: CSC[C@H]1O[C@@H](n2cnc(C(N)=O)c2N)[C@H](O)[C@@H]1O [Compound No. 54, 5-Amino-1-(5-deoxy-5-methylthio-β-D-ribofuranosyl)imidazole-4-carboxamide]

SMILES: Nc1c(C(=O)NCCCc2ccc([N+](=O)[O-])cc2)ncn1[C@@H]1O[C@H](CO)[C@@H](O)[C@H]1O [Compound No. 73]
Inhibition of Adenosine Utilization (%) ([2]; 5 µM test compound): 16 ± 0%
Inhibition of Adenosine Utilization (%) ([2]; 50 µM test compound): 33 ± 9%

SMILES: Nc1c(C(=O)NCc2ccc(S(N)(=O)=O)cc2)ncn1[C@@H]1O[C@H](CO)[C@@H](O)[C@H]1O [Compound No. 75, 5-Amino-1-β-D-ribofuranosylimidazole-4-N-[(4-sulfamoylphenyl)methyl]carboxamide]
Inhibition of Adenosine Utilization (%) ([2]; 50 µM test compound): 30 ± 3%

SMILES: Nc1c(C(=O)Nc2ccc(I)cc2)ncn1[C@@H]1O[C@H](CO)[C@@H](O)[C@H]1O [Compound No. 57, 5-Amino-1-β-D-ribofuranosyl-imidazole-4-N-(4-iodophenyl)carboxamide]
EC50 [1]: 80 µM

EC50 [1]: 28 µM
SMILES: C[C@H](NC(=O)c1ncn([C@@H]2O[C@H](CO)[C@@H](O)[C@H]2O)c1N)c1ccc([N+](=O)[O-])cc1 [Compound No. 50, (S)-5-Amino-1-β-D-ribofuranosylimidazole-4-N-[1-(4-nitrophenyl)ethyl]carboxamide]
